According to ChEMBL document CHEMBL3885861, “Open TG-GATES”:

Species on record: Rattus norvegicus
Test: Open TG-GATES - Regimen: Daily Repeat
Type: toxicity, organism-based, Sprague-Dawley
Set-up: regimen Daily Repeat, gender Male, age 6 weeks
Conditions: in vivo, po, 0 mg/kg, route gavage, dose level Control; for APTT / Bas / Eos / Fbg / Hb / Ht / Lym / MCH / MCHC / MCV / Mono / Neu / PT / Plat / RBC / Ret / WBC: tissue Blood; for KIDNEY_L / KIDNEY_R / KIDNEY_TOTAL: tissue Kidney; for LIVER: tissue Liver; for A/G / ALP / ALT / AST / BUN / CRE / Ca / Cl / DBIL / GLC / IP / K / LDH / Na / PL / RALB / TBIL / TC / TG / TP / gamma-GTP: tissue Plasma

`CC(CN1c2ccccc2Sc2ccccc21)N(C)C` (configuration not stated) [PROMETHAZINE] showed a TERMINAL_BW (72 h, time 3 day) of 230.6 g, an APTT (72 h, time 3 day) of 22.8 s and a Bas (72 h, time 3 day) of 0%. The Eos (72 h, time 3 day) was 1%, the Fbg (72 h, time 3 day) was 309 mg/dL and the Hb (72 h, time 3 day) was 13.2 g/dL. It also gave a Ht (72 h, time 3 day) of 40.1%, a Lym (72 h, time 3 day) of 81.2% and an MCH (72 h, time 3 day) of 20.4 pg. For the same compound, the MCHC (72 h, time 3 day) was 33%, the MCV (72 h, time 3 day) was 61.9 fL and the Mono (72 h, time 3 day) was 2.8%. It also gave a Neu (72 h, time 3 day) of 14.5%, a PT (72 h, time 3 day) of 16.1 s and a Plat (72 h, time 3 day) of 117 x10_4/uL. The RBC (72 h, time 3 day) was 647.8 x10_4/ul, the Ret (72 h, time 3 day) was 6% and the WBC (72 h, time 3 day) was 94 x10_2/uL. It also gave a KIDNEY_L (72 h, time 3 day) of 1 g, a KIDNEY_R (72 h, time 3 day) of 1.1 g and a KIDNEY_TOTAL (72 h, time 3 day) of 2.1 g. For the same compound, the LIVER (72 h, time 3 day) was 11.1 g, the A/G (72 h, time 3 day) was 1.3 and the ALP (72 h, time 3 day) was 1577 IU/L. For the same compound, the ALT (72 h, time 3 day) was 40 IU/L, the AST (72 h, time 3 day) was 71.8 IU/L and the BUN (72 h, time 3 day) was 17 mg/dL. It also gave a CRE (72 h, time 3 day) of 0.2 mg/dL, a Ca (72 h, time 3 day) of 10.5 mg/dL and a Cl (72 h, time 3 day) of 105.2 meq/L. The DBIL (72 h, time 3 day) was 0 mg/dL, the GLC (72 h, time 3 day) was 195.2 mg/dL and the IP (72 h, time 3 day) was 6.8 mg/dL. For the same compound, the K (72 h, time 3 day) was 4.6 meq/L, the LDH (72 h, time 3 day) was 177 IU/L and the Na (72 h, time 3 day) was 141.2 meq/L. It also gave a PL (72 h, time 3 day) of 161 mg/dL, an RALB (72 h, time 3 day) of 3.1 g/dL and a TBIL (72 h, time 3 day) of 0.005 mg/dL. The TC (72 h, time 3 day) was 86.8 mg/dL, the TG (72 h, time 3 day) was 109.8 mg/dL and the TP (72 h, time 3 day) was 5.5 g/dL. It also gave a gamma-GTP (72 h, time 3 day) of 1.8 IU/L, a TERMINAL_BW ([…], time 7 day) of 267.8 g and a TERMINAL_BW ([…], time 14 day) of 326 g. For the same compound, the TERMINAL_BW ([…], time 28 day) was 402.8 g, the APTT ([…], time 7 day) was 22.2 s and the Bas ([…], time 7 day) was 0%. It also gave an Eos ([…], time 7 day) of 0.8%, a Fbg ([…], time 7 day) of 293.8 mg/dL and a Hb ([…], time 7 day) of 12.9 g/dL. The Ht ([…], time 7 day) was 39.1%, the Lym ([…], time 7 day) was 84.2% and the MCH ([…], time 7 day) was 20.4 pg. For the same compound, the MCHC ([…], time 7 day) was 33%, the MCV ([…], time 7 day) was 61.7 fL and the Mono ([…], time 7 day) was 2.2%. The Neu ([…], time 7 day) was 12.2%, the PT ([…], time 7 day) was 16.3 s and the Plat ([…], time 7 day) was 105 x10_4/uL. It also gave an RBC ([…], time 7 day) of 633.4 x10_4/ul, a Ret ([…], time 7 day) of 6.3% and a WBC ([…], time 7 day) of 131.7 x10_2/uL. The APTT ([…], time 14 day) was 23.3 s, the Bas ([…], time 14 day) was 0% and the Eos ([…], time 14 day) was 1%. The Fbg ([…], time 14 day) was 317.8 mg/dL, the Hb ([…], time 14 day) was 14.1 g/dL and the Ht ([…], time 14 day) was 41.4%. For the same compound, the Lym ([…], time 14 day) was 80.2%, the MCH ([…], time 14 day) was 20.7 pg and the MCHC ([…], time 14 day) was 34%. For the same compound, the MCV ([…], time 14 day) was 60.8 fL, the Mono ([…], time 14 day) was 2% and the Neu ([…], time 14 day) was 15.8%. It also gave a PT ([…], time 14 day) of 16 s, a Plat ([…], time 14 day) of 114.3 x10_4/uL and an RBC ([…], time 14 day) of 681 x10_4/ul. For the same compound, the Ret ([…], time 14 day) was 5.1%, the WBC ([…], time 14 day) was 127.7 x10_2/uL and the APTT ([…], time 28 day) was 22.7 s. For the same compound, the Bas ([…], time 28 day) was 0%, the Eos ([…], time 28 day) was 0.8% and the Fbg ([…], time 28 day) was 341.8 mg/dL. The Hb ([…], time 28 day) was 15.1 g/dL, the Ht ([…], time 28 day) was 43.8% and the Lym ([…], time 28 day) was 80.2%. For the same compound, the MCH ([…], time 28 day) was 19.9 pg, the MCHC ([…], time 28 day) was 34.6% and the MCV ([…], time 28 day) was 57.7 fL. It also gave a Mono ([…], time 28 day) of 1.8%, a Neu ([…], time 28 day) of 16.4% and a PT ([…], time 28 day) of 16.4 s. For the same compound, the Plat ([…], time 28 day) was 101.8 x10_4/uL, the RBC ([…], time 28 day) was 760.2 x10_4/ul and the Ret ([…], time 28 day) was 2.9%. For the same compound, the WBC ([…], time 28 day) was 124 x10_2/uL, the KIDNEY_L ([…], time 7 day) was 1.2 g and the KIDNEY_R ([…], time 7 day) was 1.2 g. For the same compound, the KIDNEY_TOTAL ([…], time 7 day) was 2.3 g, the KIDNEY_L ([…], time 14 day) was 1.2 g and the KIDNEY_R ([…], time 14 day) was 1.2 g. For the same compound, the KIDNEY_TOTAL ([…], time 14 day) was 2.5 g, the KIDNEY_L ([…], time 28 day) was 1.4 g and the KIDNEY_R ([…], time 28 day) was 1.4 g. The KIDNEY_TOTAL ([…], time 28 day) was 2.8 g, the LIVER ([…], time 7 day) was 12.3 g and the LIVER ([…], time 14 day) was 15.1 g. It also gave an LIVER ([…], time 28 day) of 16.9 g, an A/G ([…], time 7 day) of 1.3 and an ALP ([…], time 7 day) of 1379.8 IU/L. It also gave an ALT ([…], time 7 day) of 42.2 IU/L, an AST ([…], time 7 day) of 73.2 IU/L and a BUN ([…], time 7 day) of 17.6 mg/dL. The CRE ([…], time 7 day) was 0.2 mg/dL, the Ca ([…], time 7 day) was 10.7 mg/dL and the Cl ([…], time 7 day) was 104.6 meq/L. The DBIL ([…], time 7 day) was 0 mg/dL, the GLC ([…], time 7 day) was 205.2 mg/dL and the IP ([…], time 7 day) was 7.7 mg/dL. For the same compound, the K ([…], time 7 day) was 4.6 meq/L, the LDH ([…], time 7 day) was 212.4 IU/L and the Na ([…], time 7 day) was 141.2 meq/L. For the same compound, the PL ([…], time 7 day) was 133.6 mg/dL, the RALB ([…], time 7 day) was 3.1 g/dL and the TBIL ([…], time 7 day) was 0.012 mg/dL. It also gave a TC ([…], time 7 day) of 64.4 mg/dL, a TG ([…], time 7 day) of 89.4 mg/dL and a TP ([…], time 7 day) of 5.4 g/dL. The gamma-GTP ([…], time 7 day) was 2 IU/L, the A/G ([…], time 14 day) was 1.2 and the ALP ([…], time 14 day) was 1370.6 IU/L. For the same compound, the ALT ([…], time 14 day) was 40 IU/L, the AST ([…], time 14 day) was 70.4 IU/L and the BUN ([…], time 14 day) was 18.8 mg/dL. The CRE ([…], time 14 day) was 0.2 mg/dL, the Ca ([…], time 14 day) was 10.8 mg/dL and the Cl ([…], time 14 day) was 105.4 meq/L. For the same compound, the DBIL ([…], time 14 day) was 0 mg/dL, the GLC ([…], time 14 day) was 201 mg/dL and the IP ([…], time 14 day) was 7 mg/dL. It also gave a K ([…], time 14 day) of 4.3 meq/L, an LDH ([…], time 14 day) of 162.6 IU/L and a Na ([…], time 14 day) of 142.2 meq/L. It also gave a PL ([…], time 14 day) of 136.8 mg/dL, an RALB ([…], time 14 day) of 3.2 g/dL and a TBIL ([…], time 14 day) of 0.002 mg/dL. It also gave a TC ([…], time 14 day) of 66 mg/dL, a TG ([…], time 14 day) of 133 mg/dL and a TP ([…], time 14 day) of 5.9 g/dL. The gamma-GTP ([…], time 14 day) was 3 IU/L, the A/G ([…], time 28 day) was 1 and the ALP ([…], time 28 day) was 1347.2 IU/L. It also gave an ALT ([…], time 28 day) of 42.4 IU/L, an AST ([…], time 28 day) of 66.8 IU/L and a BUN ([…], time 28 day) of 19.4 mg/dL. The CRE ([…], time 28 day) was 0.2 mg/dL, the Ca ([…], time 28 day) was 10.4 mg/dL and the Cl ([…], time 28 day) was 104.8 meq/L. The DBIL ([…], time 28 day) was 0 mg/dL, the GLC ([…], time 28 day) was 195.8 mg/dL and the IP ([…], time 28 day) was 6.3 mg/dL. The K ([…], time 28 day) was 4 meq/L, the LDH ([…], time 28 day) was 160.6 IU/L and the Na ([…], time 28 day) was 143.2 meq/L. For the same compound, the PL ([…], time 28 day) was 149 mg/dL, the RALB ([…], time 28 day) was 3 g/dL and the TBIL ([…], time 28 day) was 0.006 mg/dL. For the same compound, the TC ([…], time 28 day) was 65.8 mg/dL, the TG ([…], time 28 day) was 192.8 mg/dL and the TP ([…], time 28 day) was 6.2 g/dL. It also gave a gamma-GTP ([…], time 28 day) of 2.6 IU/L.
